Patent US8957215B2, “Heteroaryl substituted benzothiazoles” (Navidea Biopharmaceuticals, Inc., priority 2006, dated 2015)
Like-named read-outs stand apart in the source and are kept apart here. Blank lines part the entries; values can stand above or below the compound they belong to.

Experiments:
[1] = during the first 5-10 min, reference radioligands; cited from earlier work
synthetic Aβ 1-40 [2] = biological target: T1, synthetic Aβ 1-40 (Homo sapiens, UniProt P05067); experiment: Competition binding assay with [^3H]PIB as radioligand
T1 construct: using synthetic Aβ 1-40 in 2.7 nM of [^3H]PIB
Protocol: (§1) Competition binding was performed in 384-well FB filter plates using synthetic Aβ 1-40 in 2.7 nM of [^3H]PIB (or another ^3H-labeled radioligand when so mentioned) in phosphate buffer at pH 7.5, by adding various concentrations of non-radioactive compounds originally dissolved in DMSO. The binding mixture was incubated for 30 min at room temperature, followed by vacuum filtration, and subsequentially by washing twice with 1% Triton-X100. Scintillation fluid was thereafter added to the collected Aβ 1-40 on the filter plate, and the activity of the bound remaining radioligand ([^3H]PIB or another ^3H-labeled radioligand) was measured using 1450 Microbeta from PerkinElmer.
Specific binding was determined according to the competition binding assay described herein. The determined IC50's in the competition binding assays (using [^3H]PIB as radioligand) of 5 compounds of the present invention are shown in Table 1. Results (activity of remaining [^3H]PIB versus increasing concentration of non-labeled compounds) from typical competition assay experiments are exemplified in FIG. 1. In a similar way, competition studies with ^3H-labeled heteroaryl substituted benzthiazole derivates of the present invention were also conducted. Such results, from a typical competition study, are examplified in FIG. 2. PIB and 2-[6-(methylamino)pyridin-3-yl]-1,3-benzothiazol-6-ol (a novel compound of the present invention) both displaced [N-methyl-^3H3]-2-(6-methylamino-pyridin-3-yl)-benzothiazol-6-ol (a ^3H-labeled compound of the present invention). The binding of [N-methyl-^3H3]-2-(6-methylamino-pyridin-3-yl)-benzothiazol-6-ol (example 32) to Aβ1-40 fibrils, was reversible as evident from the dissociation experiment exemplified in FIG. 3.

[3] = In vivo rat brain entry study; settings: i.v.
Protocol: Brain exposure after i.v administration was determined in rat brains using cassette dosing. Four different compounds were dosed followed by plasma and brain sampling at 2 and 30 minutes after the dosing. 2 to 30 min brain concentration ratios, and percentage of total of injected dose after 2 mins found in brain, were calculated. The compound concentrations were determined by analysis of protein precipitated plasma samples by reversed-phase liquid chromatography coupled to a electrospray tandem mass spectrometer.
FIG. 4. Brain and plasma concentration at 2 and 30 minutes after i.v. administration in rat of PIB (upper graph “A”), and 2-[6-(methylamino)pyridin-3-yl]-1,3-benzothiazol-6-ol (lower graph “B”), a compound of the present intervention (example 27).

[4] = biological target: T2, human synthetic Aβ 1-40 fibrils (Homo sapiens, UniProt P05067); experiment: Dissociation experiment; assay type: binding; settings: FIG. 3
T2 construct: 2 μM human synthetic Aβ 1-40 fibrils in phosphate buffer pH 7.5
Protocol: Dissociation experiments were performed in 96-well polypropylene deep well plates. 2 μM human synthetic Aβ 1-40 fibrils in phosphate buffer pH 7.5, or buffer alone as control, was incubated with 9 nM of a ^3H-labeled radioligand of the present invention for 4 h at room temperature. Dissociation was started at different time points, by the addition of an equal volume of a non-labeled compound of the present invention, or a reference compound (10 μM), in 4% DMSO in phosphate buffer at pH 7.5. The radioactivity still bound to the Aβ 1-40 fibrils at the end of the incubation was detected on FB filters after filtration in a Brandel apparatus using a wash buffer containing 0.1% Triton-X100.
FIG. 3. Example of a dissociation experiment: Dissociation of [N-methyl-^3H3]-2-(6-methylamino-pyridin-3-yl)-benzothiazol-6-ol (example 32) from Aβ1-40 fibrils over time.

[5] = tested on: amyloid plaques in post-mortem human AD brains; experiment: Binding to amyloid plaques in post-mortem human AD brain sections
Protocol: (§2) Slide-mounted brain sections (10 μm) from APP/PS1 transgenic mice were collected at the level of the lateral septum (bregma+0.98 mm; see Paxinos and Franklin, 2001). Human cortical sections (7 μm) from two AD patients and 1 control subject were obtained from a Dutch tissue bank.
(§3) Sections were preincubated for 30 minutes at room temperature in 50 mM Tris HCl (pH 7.4) in the presence or absence of 1 μM PIB. Sections were transferred to buffer containing tritium-labeled compound (1 nM) with or without PIB (1 μM) and incubated for 30 minutes at room temperature. Incubation was terminated by 3 consecutive 10 minute rinses in buffer (1° C.) followed by a rapid rinse in distilled water (1° C.). Sections were air dried in front of a fan. Dried sections and plastic tritium standards (Amersham microscales-^3H) were apposed to phosphoimage plates (Fuji) in a cassette and exposed overnight. The following morning, the image plates were processed with a Fuji phosphoimager (BAS 2500) using BAS Reader software. The resulting image was converted to TIF format using Aida software, optimized with Adobe Photoshop (v 8.0) and quantified using Image-J (NIH). Data were statistically analyzed using Excel.

[6] = tested on: amyloid plaques in APP/PS1 mouse brain; assay type: in vivo
Protocol: Naïve, awake mice were restrained and intravenously infused via the tail vein with either a tritium labeled compound of the present invention, or a tritium labeled reference compound via the tail vein. In one type of experiment, the animals were rapidly anesthetized with isofluorane and decapitated twenty minutes after compound administration (1 mCi). In another type of experiment, mice were given 1 mCi of a compound and were anesthetized and decapitated at a timepoint of 20, 40 or 80 minutes after administration. Brains were removed and frozen with powdered dry ice. Brains were sectioned (10 μm) in the coronal plane at the level of the striatum with a cryostat, thaw-mounted onto superfrost microscope slides and air-dried.
Methods designed to optimize the imaging of bound ligand after in vivo administration were thereafter employed. To selectively reduce unbound radioactivity levels, one-half of the sections were rinsed (3×10 minutes) in cold (1° C.) Tris buffer (50 mM, pH7.4) followed by a rapid rinse in cold (1° C.) deionized water. Sections were then air dried in front of a fan. Rinsed as well as unrinsed sections and tritium standards were exposed to phosphoimage plates (Fuji). Phosphoimage plates were processed with a Fujifilm BAS-2500 phosphoimager using BAS Reader software.

[7] = tested on: amyloid plaques in APP/PS1 transgenic mice brain sections; experiment: Binding to amyloid plaques in APP/PS1 transgenic mouse brain sections; settings: 1 nM tritium-labeled compound
Protocol: as §2, §3

synthetic Aβ 1-40 [8] = biological target: T1, synthetic Aβ 1-40; experiment: Competition binding assay with [N-methyl-^3H3]-2-(6-methylamino-pyridin-3-yl)-benzothiazol-6-ol as radioligand; settings: ^3H-labeled example 32 as radioligand, FIG. 2
Protocol: as §1
Specific binding was determined according to the competition binding assay described herein. The determined IC50's in the competition binding assays (using [^3H]PIB as radioligand) of 5 compounds of the present invention are shown in Table 1. Results (activity of remaining [^3H]PIB versus increasing concentration of non-labeled compounds) from typical competition assay experiments are exemplified in FIG. 1. In a similar way, competition studies with ^3H-labeled heteroaryl substituted benzthiazole derivates of the present invention were also conducted. Such results, from a typical competition study, are examplified in FIG. 2. […]

[9] = Whole body PET measurement in monkey; assay type: in vivo
Protocol: Whole body PET-measurement was performed in one monkey. A sterile physiological phosphate buffer (pH=7.4) solution containing 51 MBq of [^11C]PIB in the first measurement, and 57 MBq of a [^11C]-labelled compound of the present invention in the second measurement, was injected as a bolus into a sural vein over a period of 5 seconds with simultaneous start of PET-data acquisition that lasted for 87 min. The time between radioligand injections was 2 h. PET measurements were assessed visually by creating planar maximum intensity projection images of decay uncorrected data and also converting decay corrected images to ones containing parts-per-million (ppm) values of the total injected radioactivity.

[10] = Brain PET study in monkey; assay type: in vivo
Protocol: The monkey PET study aimed to assess and compare a [^11C]-labelled compound of this invention to [^11C]PIB regarding measures of brain availability, non-specific binding in the brain, whole body biodistribution, elimination and exploration of regional differences in uptake. Five brain PET measurements were performed in three monkeys under anesthesia. In each PET-measurement a sterile physiological phosphate buffer (pH=7.4) solution containing 52-55 MBq of either a [^11C]-labelled compound of this invention, or [^11C]PIB, was injected as a bolus into a sural vein over a period of 5 seconds with simultaneous start of PET-data acquisition. Radioactivity in brain was measured continuously for 93 minutes. Only [^11C]PIB measurement was performed in the first monkey. In the other two monkeys a [^11C]-labelled compound of the present invention was measured first and [^11C]PIB was administered in a subsequent measurement. The time between radioligand injections was approx. 2 h. PET measurements were evaluated with respect to the time-activity curve for the whole brain expressed as percent injected radioactivity dose.

T1 sequence (P05067 672-711 limits assumed): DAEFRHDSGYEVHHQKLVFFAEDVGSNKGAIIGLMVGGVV
T2 sequence (P05067 672-711 limits assumed): as above

IC50 (synthetic Aβ 1-40 [2]): 0.176 µM
Compound: CN1CCN(c2ccc(-c3nc4ccc(O)cc4s3)cn2)CC1 [Example 6, 2-[6-(4-Methylpiperazin-1-yl)pyridin-3-yl]-1,3-benzothiazol-6-ol Acetate]

IC50 (synthetic Aβ 1-40 [2]): 0.17 µM
Compound: COc1ccc(-c2nc3ccc(C(N)=O)cc3s2)cn1 [Example 9, 2-(6-Methoxypyridin-3-yl)-1,3-benzothiazole-6-carboxamide]

IC50 (synthetic Aβ 1-40 [2]): 0.186 µM
Compound: CC(=O)Nc1ccc2nc(-c3ccc(N4CCN(C)CC4)nc3)sc2c1 [Example 15, N-{2-[6-(4-Methylpiperazin-1-yl)pyridin-3-yl]-1,3-benzothiazol-6-yl}acetamide]

IC50 (synthetic Aβ 1-40 [2]): 0.058 µM
Compound: CNc1ccc(-c2nc3ccc(OC)cc3s2)cn1 [Example 25, 5-(6-Methoxy-1,3-benzothiazol-2-yl)-N-methylpyridin-2-amine]

2 minute to 30 minute brain concentration ratio [3]: > 15 | brain uptake value ([3]; 2 min time point): 1 % of the injected dose
Compound: CNc1ccc(-c2nc3ccc(O)cc3s2)cn1 [Example 27, 2-[6-(Methylamino)pyridin-3-yl]-1,3-benzothiazol-6-ol]

displacement of [N-methyl-^3H3]-2-(6-methylamino-pyridin-3-yl)-benzothiazol-6-ol (synthetic Aβ 1-40 [8]): displaced
Compound: CNc1ccc(-c2nc3ccc(O)cc3s2)cc1 [PIB]

The remaining lines, values behind:

Compound: CCN1CCC[C@H]1CNC(=O)c1c(O)c(Cl)cc(Cl)c1O[11CH3] (racemic) [[^11C]raclopride]
fraction of the total injected radioactivity present in the brain [1]: 1-2%

Compound: [3H]C([3H])([3H])Nc1ccc(-c2nc3ccc(O)cc3s2)cn1 [Example 32, [N-Methyl-^3H3]-2-(6-Methylamino-pyridin-3-yl)-benzothiazol-6-ol]
reversibility of binding to Aβ1-40 fibrils [4]: reversible | levels of nonspecific binding compared to [^3H]PIB ([5]; human cortical sections): substantially reduced | labeling of dense core plaques ([5]; human cortical sections, 1 nM tritium-labeled compound): labeled dense core plaques | specific binding levels greater than binding observed with [^3H]PIB ([5]; superficial gray layers of human cortex): approximately 40% | cortical plaque labeling in rinsed tissue ([6]; 20 minutes after administration): highest | cortical plaque labeling in rinsed tissue ([6]; 80 minutes after administration): barely detectable | labeling of cortical structures after in vivo administration ([6]; APP/PS1 mice, decapitation 20 minutes after administration): labeled cortical structures | effect of in vitro rinse on levels in corpus callosum ([6]; corpus callosum (white matter)): dramatically reduced | reduction of nonspecific binding by in vitro rinse ([6]; striatum (gray matter)): 78.5% | labeling of dense core plaques [7]: labeled dense core plaques

Compound: [11CH3]Nc1ccc(-c2nc3ccc(O)cc3s2)cc1 [[^11C]PIB, reference compound]
elimination routes [9]: urinary excretion and hepatobiliary secretion

Compound: [11CH3]Nc1ccc(-c2nc3ccc(O)cc3s2)cn1 [^11C-Example 1, [N-Methyl-^11C]-2-(6-Methylamino-pyridin-3-yl)-benzothiazol-6-ol]
brain concentration after the peak ([10]; monkey): declined rapidly | unspecific binding as compared to [^11C]PIB ([10]; monkey brain, time points of relevance for PET-detection): significantly lower | brain exposure ([10]; monkey, FIG. 12): 1-3 % of total injected radioactivity | time of peak brain uptake ([10]; monkey, after injection): first minute | elimination as compared to [^11C]PIB [9]: faster elimination | elimination routes [9]: urinary excretion and hepatobiliary secretion
